Results: US9809583B2 (priority 2014, dated 2017)

The compounds below were run against androgen receptor (hAR) (Homo sapiens (Human), UniProt P10275) (assay: Test of transcriptional activity (hAR / ARE-Luc dual-luciferase assay in CHO cells)). Conditions: CHO cells with hAR and ARE-Luc, 24 hours; 10 nM DHT = 100%; read-out: EC50 [nM] (mean ± SE).
Format: cell-based
Method: In order to examine the transcriptional activity of the agonists of the present invention, the following in-vitro experiment was performed. CHO (Chinese hamster ovary) cell line (ATCC, #CCL-61) was seeded in a 96-well plate at a density of 1.5×10^4 cells/well, and cultured for 24 hours. Then, a plasmid hAR and plasmid ARE-Luc-mixed medium was added thereto. The transfected cell line was treated with 0.1˜10,000 nM of SARM derivatives, and then allowed to react for 24 hours.

Chain of androgen receptor (hAR) (P10275 whole entry): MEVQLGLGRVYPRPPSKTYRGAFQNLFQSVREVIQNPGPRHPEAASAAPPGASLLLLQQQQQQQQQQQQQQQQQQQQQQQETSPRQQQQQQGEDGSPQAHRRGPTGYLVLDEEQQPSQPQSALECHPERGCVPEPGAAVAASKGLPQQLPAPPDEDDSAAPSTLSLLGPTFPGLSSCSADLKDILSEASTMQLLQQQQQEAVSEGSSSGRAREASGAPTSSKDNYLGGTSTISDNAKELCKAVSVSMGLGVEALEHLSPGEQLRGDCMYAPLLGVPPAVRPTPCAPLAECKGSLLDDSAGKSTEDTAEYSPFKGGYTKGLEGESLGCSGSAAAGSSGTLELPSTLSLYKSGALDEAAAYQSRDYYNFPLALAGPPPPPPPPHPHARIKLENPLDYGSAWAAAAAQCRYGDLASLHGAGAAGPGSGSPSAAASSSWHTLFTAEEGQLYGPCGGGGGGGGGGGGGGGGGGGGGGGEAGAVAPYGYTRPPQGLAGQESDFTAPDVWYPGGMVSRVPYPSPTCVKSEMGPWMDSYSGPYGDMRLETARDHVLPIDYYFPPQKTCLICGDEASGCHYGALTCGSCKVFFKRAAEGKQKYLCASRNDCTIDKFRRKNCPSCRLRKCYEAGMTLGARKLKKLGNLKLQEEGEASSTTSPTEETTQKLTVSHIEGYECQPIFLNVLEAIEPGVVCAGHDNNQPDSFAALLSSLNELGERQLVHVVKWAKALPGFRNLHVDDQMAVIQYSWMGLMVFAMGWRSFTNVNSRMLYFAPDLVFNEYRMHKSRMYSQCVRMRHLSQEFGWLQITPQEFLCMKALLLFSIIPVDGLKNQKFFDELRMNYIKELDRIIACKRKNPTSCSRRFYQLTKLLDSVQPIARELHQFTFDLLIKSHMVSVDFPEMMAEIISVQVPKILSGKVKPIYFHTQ

**Q.** “(2R,5S)-N-(4-cyano-2-fluorophenyl)-3-(3-methyl-4-nitrophenyl)-2-(trifluoromethyl)oxazolidine-5-carboxamide [Example 113]” was tested. Which EC50 did it give?
**A.** Its EC50 is 80.5 nM.

**Q.** “(2R,5S)-N-(4-cyanophenyl)-3-(3-methyl-4-nitrophenyl)-2-(trifluoromethyl)oxazolidine-5-carboxamide [Example 111]” was tested. Which EC50 did it give?
**A.** Its EC50 is 4.46 nM.

**Q.** “(2R,5S)-N-(4-cyano-2-(trifluoromethyl)phenyl)-3-(4-cyano-3-(trifluoromethyl)phenyl)-2-(trifluoromethyl)oxazolidine-5-carboxamide [Example 128]” was tested. Which EC50 did it give?
**A.** Its EC50 is 11.1 nM.

**Q.** With “(2R,5S)-N-(3-chloro-4-cyanophenyl)-3-(4-cyano-3-(trifluoromethyl)phenyl)-2-(trifluoromethyl)oxazolidine-5-carboxamide [Example 134]” as the compound, how does the EC50 read?
**A.** The EC50 was 4.96 nM.

**Q.** How did the EC50 turn out when `O=[N+]([O-])c1ccc(N2C[C@@H](COc3ccncc3)O[C@@H]2C(F)(F)F)cc1C(F)(F)F` [Example 66, (2R,5S)-3-(4-nitro-3-(trifluoromethyl)phenyl)-5-((pyridin-4-yloxy)methyl)-2-(trifluoromethyl)oxazolidine] was run?
**A.** Its EC50 is 19.9 nM.

**Q.** How did the EC50 turn out when `N#Cc1ccc(OC[C@@H]2CN(c3ccc([N+](=O)[O-])c(C(F)(F)F)c3)[C@@H](C(F)(F)F)O2)cn1` [Example 65, 5-(((2R,5S)-3-(4-nitro-3-(trifluoromethyl)phenyl)-2-(trifluoromethyl)oxazolidin-5-yl)methoxy)picolinonitrile] was run?
**A.** Its EC50 is 59.5 nM.

Same assay, conditions: EC50 [nM] (mean ± SE), CHO cells with hAR and ARE-Luc, 24 hours; 10 nM DHT = 100%

**Q.** `N#Cc1ccc(N2C[C@@H](COc3ccc(-c4nnco4)cc3)O[C@@H]2C(F)(F)F)cc1C(F)(F)F` [Example 18, 4-((2R,5S)-5-((4-(1,3,4-oxadiazol-2-yl)phenoxy)methyl)-2-(trifluoromethyl)oxazolidin-3-yl)-2-(trifluoromethyl)benzonitrile] was tested. Which EC50 did it give?
**A.** Its EC50 is 18.6 nM.

**Q.** With `CC(=O)Nc1ccc(NC(=O)[C@@H]2CN(c3ccc(C#N)c(C(F)(F)F)c3)[C@@H](C(F)(F)F)O2)cc1` [Example 109, (2R,5S)-N-(4-acetamidophenyl)-3-(4-cyano-3-(trifluoromethyl)phenyl)-2-(trifluoromethyl)oxazolidine-5-carboxamide] as the compound, how does the EC50 read?
**A.** Its EC50 is 5.09 nM.

**Q.** With `CO/N=C/c1ccc(OC[C@@H]2CN(c3ccc(C#N)c(C(F)(F)F)c3)[C@@H](C(F)(F)F)O2)cc1` [Example 85, 4-((2R,5S)-5-((4-((E)-(methoxyimino)methyl)phenoxy)methyl)-2-(trifluoromethyl)oxazolidin-3-yl)-2-(trifluoromethyl)benzonitrile] as the compound, how does the EC50 read?
**A.** Its EC50 is 9.84 nM.

**Q.** For `CC(C)(C)OC(=O)NCc1ccc(OC[C@@H]2CN(c3ccc(C#N)c(C(F)(F)F)c3)[C@@H](C(F)(F)F)O2)cc1` [Example 88], which EC50 is on record?
**A.** The EC50 was 926 nM.

**Q.** For `N#Cc1ccc(N2C[C@@H](C(=O)Nc3ccncc3)O[C@@H]2C(F)(F)F)cc1C(F)(F)F` [Example 107, (2R,5S)-3-(4-cyano-3-(trifluoromethyl)phenyl)-N-(pyridin-4-yl)-2-(trifluoromethyl)oxazolidine-5-carboxamide], which EC50 is on record?
**A.** The EC50 was 7.18 nM.

**Q.** `N#Cc1ccc(N2C[C@@H](C(=O)N3CCC(C#N)CC3)O[C@@H]2C(F)(F)F)cc1C(F)(F)F` [Example 167] was tested. Which EC50 did it give?
**A.** The EC50 was 44 nM.

**Q.** With `N#Cc1ccc(N2C[C@@H](C(=O)Nc3ccc(F)c(F)c3)O[C@@H]2C(F)(F)F)cc1C(F)(F)F` [Example 140, (2R,5S)-3-(4-cyano-3-(trifluoromethyl)phenyl)-N-(3,4-difluorophenyl)-2-(trifluoromethyl)oxazolidine-5-carboxamide] as the compound, how does the EC50 read?
**A.** Its EC50 is 14.7 nM.

**Q.** `N#Cc1ccc(N2C[C@@H](COc3ccc(NC(=O)Oc4ccccc4)cc3)O[C@@H]2C(F)(F)F)cc1C(F)(F)F` [Example 43, phenyl (4-(((2R,5S)-3-(4-cyano-3-(trifluoromethyl)phenyl)-2-(trifluoromethyl)oxazolidin-5-yl)methoxy)phenyl)carbamate] was tested. Which EC50 did it give?
**A.** The EC50 was 21.3 nM.

**Q.** For `N#Cc1ccc(OC[C@@H]2CN(c3ccc(C#N)c(Cl)c3)[C@@H](C(F)(F)F)O2)cc1` [Example 71, 2-chloro-4-((2R,5S)-5-((4-cyanophenoxy)methyl)-2-(trifluoromethyl)oxazolidin-3-yl)benzonitrile], which EC50 is on record?
**A.** The EC50 was 1.57 nM.

**Q.** Which EC50 does the source give for `CC(=O)N1CCC(NC(=O)[C@@H]2CN(c3ccc(C#N)c(C(F)(F)F)c3)[C@@H](C(F)(F)F)O2)CC1` [Example 170, (2R,5S)-N-(1-acetylpiperidin-4-yl)-3-(4-cyano-3-(trifluoromethyl)phenyl)-2-(trifluoromethyl)oxazolidine-5-carboxamide] here?
**A.** The EC50 was 3560 nM.

**Q.** How did the EC50 turn out when `N#Cc1ccc(N2C[C@@H](C(=O)Nc3ccc([N+](=O)[O-])cc3F)O[C@@H]2C(F)(F)F)cc1C(F)(F)F` [Example 104] was run?
**A.** The EC50 was 24.9 nM.

**Q.** With `N#Cc1ccc(N2C[C@@H](COc3ccc(N4CCCC4=O)cc3)O[C@@H]2C(F)(F)F)cc1C(F)(F)F` [Example 17, 4-((2R,5S)-5-((4-(2-oxopyrrolidin-1-yl)phenoxy)methyl)-2-(trifluoromethyl)oxazolidin-3-yl)-2-(trifluoromethyl)benzonitrile] as the compound, how does the EC50 read?
**A.** The EC50 was 24 nM.

**Q.** `N#Cc1ccc(OC[C@@H]2CN(c3ccc(C#N)c(Cl)c3)[C@H](C(F)(F)F)O2)cc1` [Example 83, 2-chloro-4-((2S,5S)-5-((4-cyanophenoxy)methyl)-2-(trifluoromethyl)oxazolidin-3-yl)benzonitrile] was tested. Which EC50 did it give?
**A.** The EC50 was 29.6 nM.

**Q.** `N#Cc1ccc(NC(=O)[C@@H]2CN(c3ccc(C#N)c(C(F)(F)F)c3)[C@@H](C(F)(F)F)O2)cc1F` [Example 147, (2R,5S)-3-(4-cyano-3-(trifluoromethyl)phenyl)-N-(4-cyano-3-fluorophenyl)-2-(trifluoromethyl)oxazolidine-5-carboxamide] was tested. Which EC50 did it give?
**A.** The EC50 was 768 nM.

**Q.** Which EC50 does the source give for `N#Cc1ccc(OC[C@@H]2CN(c3ccc(C#N)c(C(F)(F)F)c3)[C@@H](C(F)(F)F)O2)c([N+](=O)[O-])c1` [Example 99, 4-((2R,5S)-5-((4-cyano-2-nitrophenoxy)methyl)-2-(trifluoromethyl)oxazolidin-3-yl)-2-(trifluoromethyl)benzonitrile] here?
**A.** Its EC50 is 97.3 nM.

**Q.** Which EC50 does the source give for `CCc1cc(C#N)ccc1NC(=O)[C@@H]1CN(c2ccc(C#N)c(C(F)(F)F)c2)[C@@H](C(F)(F)F)O1` [Example 145, (2R,5S)-N-(4-cyano-2-ethylphenyl)-3-(4-cyano-3-(trifluoromethyl)phenyl)-2-(trifluoromethyl)oxazolidine-5-carboxamide] here?
**A.** Its EC50 is 305 nM.

**Q.** Which EC50 does the source give for `N#Cc1ccc(OC[C@@H]2CN(c3ccc(C#N)c(C(F)(F)F)c3)[C@@H]([C@@H](O)C(F)(F)F)O2)cc1` [Example 48, 4-((2R,5S)-5-((4-cyanophenoxy)methyl)-2-((R)-2,2,2-trifluoro-1-hydroxyethyl)oxazolidin-3-yl)-2-(trifluoromethyl)benzonitrile] here?
**A.** Its EC50 is 1520 nM.

**Q.** With `N#Cc1ccc(NC(=O)[C@@H]2CN(c3ccc(C#N)c(C(F)(F)F)c3)[C@@H](C(F)(F)F)O2)cc1` [Example 138, (2R,5S)-3-(4-cyano-3-(trifluoromethyl)phenyl)-N-(4-cyanophenyl)-2-(trifluoromethyl)oxazolidine-5-carboxamide] as the compound, how does the EC50 read?
**A.** The EC50 was 17.3 nM.

**Q.** `N#CCC(=O)Nc1ccc(NC(=O)[C@@H]2CN(c3ccc(C#N)c(C(F)(F)F)c3)[C@@H](C(F)(F)F)O2)cc1` [Example 162, (2R,5S)-3-(4-cyano-3-(trifluoromethyl)phenyl)-N-(4-(2-cyanoacetamido)phenyl)-2-(trifluoromethyl)oxazolidine-5-carboxamide] was tested. Which EC50 did it give?
**A.** The EC50 was 149 nM.
